Laboratory results published in paper PMC7592913, “PE homeostasis rebalanced through mitochondria-ER lipid exchange prevents retinal degeneration in Drosophila” (PLoS Genetics, 2020).

Biological target: T1, PECT (Drosophila melanogaster, UniProt Q9VK25)
T1 construct: pect cDNA in pMAL, N-terminal MBP fusion (tag kept), E. coli BL21 (DE3), amylose column
Test: LC-MS (SRM) detection of CDP-ethanolamine product
Assay type: biochemical
Details: 1 mM phosphoethanolamine, 2 mM CTP, 10 mM MgCl2, 1 mM DTT, 1 uM MBP-PECT, pH 7.7, 37 °C, 15 min

T1 sequence (Q9VK25 1-393): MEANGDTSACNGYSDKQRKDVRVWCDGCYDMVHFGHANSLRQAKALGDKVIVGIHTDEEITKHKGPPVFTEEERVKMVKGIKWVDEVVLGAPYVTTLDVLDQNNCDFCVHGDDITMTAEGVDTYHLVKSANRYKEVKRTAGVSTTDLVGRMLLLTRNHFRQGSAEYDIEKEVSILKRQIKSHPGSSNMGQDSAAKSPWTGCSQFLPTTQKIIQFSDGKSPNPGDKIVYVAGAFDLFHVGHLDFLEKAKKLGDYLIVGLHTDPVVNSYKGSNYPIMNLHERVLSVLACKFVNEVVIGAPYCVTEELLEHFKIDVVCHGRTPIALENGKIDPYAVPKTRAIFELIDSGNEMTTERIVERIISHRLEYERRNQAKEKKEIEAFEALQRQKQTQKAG

SMILES | LC-MS (SRM) detection of CDP-ethanolamine product
Nc1ccn([C@@H]2O[C@H](COP(=O)(O)OP(=O)(O)OP(=O)(O)O)[C@@H](O)[C@H]2O)c(=O)n1 [CTP] | CDP-ethanolamine was detected by the mass spectrum after incubating phosphoethanolamine and CTP with PECT
NCCOP(=O)(O)O [phosphoethanolamine] | CDP-ethanolamine was detected by the mass spectrum after incubating phosphoethanolamine and CTP with PECT
